The values below come from ChEMBL document CHEMBL1201862, “PubChem BioAssay data set” (2004).

Common to all, as to experiment: DTP human tumour cell line panel, 48 h
Assay [1] has as its system NCI-H23.
Assay [2] relates to SF-268.
The test system of assay [3] is CCRF-CEM.
The test system of assay [4] is HT-29.
Assay [5] concerns OVCAR-8.
For assay [6], the system named is TK-10.
Assay [7] concerns IGROV-1.
The subject of assay [8] is HL-60.
The test system of assay [9] is UACC-257.
Assay [10] concerns M14.
Assay [11] has as its system NCI-H522.
The test system of assay [12] is HOP-62.
Assay [13] relates to SF-539.
Assay [14] relates to SNB-75.
The subject of assay [15] is HCC 2998.
Assay [16] concerns MOLT-4.
Assay [17] relates to EKVX.
In assay [18] the test system is NCI/ADR-RES.
In assay [19] the test system is MDA-MB-231.

As usually defined, the GI50 is the concentration giving 50% growth inhibition.

Each structure is given as a SMILES string.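 All cell lines were grown in 96-well plates and treated with compound for 48 hours. Abbreviation: GI50, concentration required for 50% inhibition of growth.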 Calls of active or inactive are those of the source. Rule as the data show it: active = GI50 up to about 1.1 µM and inactive = higher. A value given as a limit tells only on which side of the number the result lay.

`COc1ccc(C(=O)C=C2NCCN2)cc1`: the GI50 in [1], in [2], in [3], in assay [4], in assay [5] and in [6] was > 100 µM (inactive) each time. The GI50 in [7], in [8], in [9], in assay [10], in [11] and in assay [12] was > 100 µM (inactive) in each case. In addition, the GI50 in assay [13], in assay [14], in [15], in assay [16] and in assay [17] was > 100 µM (inactive) each time.
Regarding `CCOP(=O)(OCC)C(C(=O)OC)C(=O)C(=O)Nc1ccc(Cl)cc1Cl` (stereo unspecified), the GI50 in assay [1], in [2], in [3], in assay [4], in assay [5] and in assay [6] was > 100 µM (inactive) in each case. The GI50 in [7], in [8], in assay [9], in assay [10], in [11] and in [12] was > 100 µM (inactive) in each case. Also, the GI50 in [13], in [14], in assay [15], in assay [16] and in [17] was > 100 µM (inactive) each time.
Turning to `CC(=O)OCC1OC(OC2CC3C(C)(C)C(O)CC[C@]3(C)C3CCC45CC4(CC[C@H]5C(C)CC(O)C4OC4(C)C)[C@]23C)C(O)C(O)C1O` (stereo partly specified), the GI50 in assay [1] is 8.75 µM (inactive); in [2], 6.38 µM (inactive); in assay [3], 1.56 µM (inactive); in assay [4] it was 8.38 µM (inactive); in assay [5], 6.89 µM (inactive); in assay [6], 8.73 µM (inactive). The GI50 in assay [7] was 0.966 µM (active); in [8], 0.973 µM (active); in assay [9] it was 9.04 µM (inactive); in assay [10] it was 8.04 µM (inactive); in [11] it was 4.89 µM (inactive); in assay [12], 11.1 µM (inactive). Moreover, the GI50 is 7.98 µM (inactive) in [13]; 7.46 µM (inactive) in assay [14]; 7.06 µM (inactive) in [15]; 0.701 µM (active) in [16]; 8.61 µM (inactive) in assay [17].
`O=C(O)CC(NC(=O)C(F)(F)F)C(=O)NC1Cc2ccccc2OC1=O` (stereo unspecified): the GI50 in assay [1], in assay [2], in [4], in [5], in [6] and in assay [7] was > 100 µM (inactive) in each case. For the same molecule, the GI50 in [9], in assay [10], in [11], in assay [18], in assay [12] and in assay [13] was > 100 µM (inactive) throughout. The GI50 in [14], in [15], in [16] and in assay [17] was > 100 µM (inactive) throughout.
Turning to `N#CC1(N2CCCC2)CCC2(CC1)OCCO2`, the GI50 in [1], in assay [2], in assay [3], in assay [4], in [5] and in assay [6] was > 100 µM (inactive) each time. For the same molecule, the GI50 in assay [7], in assay [8], in assay [9], in [10], in assay [11] and in assay [12] was > 100 µM (inactive) each time. For the same molecule, the GI50 in assay [13], in assay [14], in assay [15], in [16] and in assay [17] was > 100 µM (inactive) in each case.
With `N#C/C(=C\c1cc(O)ccc1O)C(N)=O`, the GI50 was 36.2 µM (inactive) in assay [1]; 35.1 µM (inactive) in [2]; 21.5 µM (inactive) in assay [3]; 38.8 µM (inactive) in assay [4]; 50.6 µM (inactive) in assay [5]; 50.8 µM (inactive) in assay [6]. Besides, the GI50 was 99.5 µM (inactive) in assay [7]; 14 µM (inactive) in assay [8]; 28.4 µM (inactive) in assay [9]; 38.6 µM (inactive) in assay [10]; 18.2 µM (inactive) in [11]; > 100 µM (inactive) in assay [12]. For the same molecule, the GI50 in assay [13] is 50.7 µM (inactive); in assay [14], 14.6 µM (inactive); in [15], 67.3 µM (inactive); in [16], 27 µM (inactive); in assay [17], 33.1 µM (inactive).
`COC1=CC(c2ccc(Br)[nH]2)=N/C1=C/NCC(C)C`: the GI50 in assay [1] is 1.58 µM (inactive); in assay [2], 2.26 µM (inactive); in [3], 0.581 µM (active); in [4], 1.24 µM (inactive); in [5], 2.01 µM (inactive); in assay [6], 2.55 µM (inactive). In addition, the GI50 was 2.37 µM (inactive) in assay [7]; 1.39 µM (inactive) in assay [8]; 2.07 µM (inactive) in [9]; 1.98 µM (inactive) in assay [10]; 1.49 µM (inactive) in assay [11]; 1.47 µM (inactive) in [12]. The GI50 is 2.06 µM (inactive) in assay [13]; 5.18 µM (inactive) in [14]; 1.34 µM (inactive) in assay [15]; 1.33 µM (inactive) in assay [16]; 0.368 µM (active) in [17]; 2.02 µM (inactive) in assay [19].
Consider `CCc1ccc(Cc2ccc(CC)c(NC(=O)C(=O)Cc3nc4ccccc4nc3C)c2CC)c(CC)c1NC(=O)C(=O)Cc1nc2ccccc2nc1C`, for which the GI50 in assay [1] is > 100 µM (inactive); in assay [2], 33.3 µM (inactive); in [3], 42.7 µM (inactive); in assay [5], > 100 µM (inactive); in assay [6], > 100 µM (inactive); in assay [7], > 100 µM (inactive). Moreover, the GI50 in assay [8] is > 100 µM (inactive); in [9] it was > 100 µM (inactive); in assay [10], > 100 µM (inactive); in assay [11], 26.4 µM (inactive); in assay [12], > 100 µM (inactive); in [13], 36.8 µM (inactive). The GI50 in [14] was 9.77 µM (inactive); in [15], 62.5 µM (inactive); in [16], 40.6 µM (inactive); in [17], 45.9 µM (inactive).
Regarding `CCOC(=O)C(Cc1ccccc1)NC(=O)c1nc[nH]c1/N=N/N(C)C` (stereo unspecified), the GI50 in assay [1] was > 100 µM (inactive); in assay [2], > 100 µM (inactive); in assay [3], > 100 µM (inactive); in assay [4], > 100 µM (inactive); in assay [5], > 100 µM (inactive); in assay [6] it was > 10 µM (inactive). Besides, the GI50 in [7], in assay [8], in assay [9], in assay [10], in [11] and in assay [12] was > 100 µM (inactive) each time. Also, the GI50 in [13], in assay [14], in assay [15], in [16] and in assay [17] was > 100 µM (inactive) each time.
`O=C1CCCCC12CCC/C2=N\O` (stereo unspecified): the GI50 in [2], in [3], in assay [5], in assay [6], in assay [7] and in assay [8] was > 100 µM (inactive) throughout. In addition, the GI50 in assay [9], in [10], in [11], in assay [12], in assay [13] and in assay [14] was > 100 µM (inactive) throughout. Also, the GI50 in assay [15], in [16] and in assay [17] was > 100 µM (inactive) each time.
In the case of `Cc1c2ccncc2c(C)c2c1[nH]c1ccc(OC(C)(C)C)cc12`, the GI50 in [1] is 5.36 µM (inactive); in [2], 5.12 µM (inactive); in [3] it was 2.07 µM (inactive); in assay [4], 2.29 µM (inactive); in [5] it was 2.51 µM (inactive); in assay [6] it was 4.88 µM (inactive). Also, the GI50 in assay [7] was 4.7 µM (inactive); in assay [8], 1.81 µM (inactive); in [9] it was 1.97 µM (inactive); in assay [10], 4.06 µM (inactive); in assay [11] it was 2.44 µM (inactive); in assay [12] it was 2.88 µM (inactive). Besides, the GI50 is 1.57 µM (inactive) in assay [13]; 1.85 µM (inactive) in assay [14]; 1.85 µM (inactive) in [15]; 1.67 µM (inactive) in assay [16]; 11.1 µM (inactive) in [17].
As to `Clc1ccc(C2SCc3nc4ccccc4n32)c(Cl)c1` (stereo unspecified), the GI50 in assay [1] is 11.3 µM (inactive); in assay [2] it was 16.5 µM (inactive); in assay [3] it was 12.6 µM (inactive); in assay [4], 16 µM (inactive); in assay [5], 16.9 µM (inactive); in [6] it was 14.4 µM (inactive). For the same molecule, the GI50 in assay [7] was 15.5 µM (inactive); in assay [8], 8.22 µM (inactive); in assay [9] it was 9.79 µM (inactive); in assay [10] it was 14.4 µM (inactive); in assay [11], 15.7 µM (inactive); in [12], 14 µM (inactive). For the same molecule, the GI50 in [13] was 17.5 µM (inactive); in [14] it was 19.3 µM (inactive); in assay [15], 14.6 µM (inactive); in assay [16], 14.1 µM (inactive); in [17] it was 11.6 µM (inactive).
